pIC50: −log10 of the molar value.
Test system: U87 cells
Settings: MTS
Experimental: Cell were seeded at 3E3 cells in 96-well plates the day before. At 24 hour post cell seeding, PALA at 0.00975, 0.039, 0.156, 0.625, 2.5, 10, 40 and 160 uM were added to the culture for 5 consecutive days followed by an MTS assay to determine the cell viability. […] A range of cytosine concentrations (0.2, 1, 5 10 mM) in culture was also determined by performing the same experiment described above.

Compound	tolerance of cells to cytosine (0.2, 1, 5 10 mM cytosine in culture)	pIC50 (read-out: ICH of PALA, naive U87, U87 with pAC3-yCD2 and with pAC3.S1-yCD2, 5 consecutive days)
Nc1cc[nH]c(=O)n1 [cytosine]	tolerate cytosine in all concentrations tested	
N-(phosphonacetyl)-L-aspartate [PALA]		4.52 to 5.10
